Experimental findings from patent US20100240604A1, “PROTECTED NUCLEOTIDE ANALOGS” (Alios BioPharma, Inc., priority 2009, published 2010) are described below.

The subject of one data set is AVA5 cell line. The data set can be described thus: Cytotoxicity by neutral red dye uptake assay in the HCV replicon cultures. The format is cell-based. The note with it: 2-fold depression of neutral red dye uptake relative to untreated cultures; daily treatment for three days, assessed at 72 hours. The procedure:
(§1) Antiviral activity of the test compounds was assessed (Okuse, et al., Antivir. Res. (2005) 65:23) in the stably HCV RNA-replicating cell line, AVA5 (genotype 1b, subgenomic replicon, Blight, et al., Sci. (2000) 290:1972). Compounds were added to dividing cultures daily for three days. Cultures generally start the assay at 30-50% confluence and reach confluence during the last day of treatment. Intracellular HCV RNA levels and cytotoxicity were assessed 72 hours after treatment.
(§2) Quadruplicate cultures for HCV RNA levels and cytoxicity (on 96-well plates) were used. A total of 12 untreated control cultures, and triplicate cultures treated with α-interferon (concentrations of: 10 IU/mL, 3.3 IU/mL, 1.1 IU/mL and 0.37 IU/mL) and 2′C-Me-C (concentrations of: 30 μM, 10 μM, 3.3 μM and 1.1 μM) served as assay controls.
(§3) Intracellular HCV RNA levels were measured using a conventional blot hybridization method, in which HCV RNA levels are normalized to the levels of β-actin RNA in each individual culture (Okuse, et al., Antivir. Res. (2005) 65:23). Cytotoxicity was measured using an established neutral red dye uptake assay (Korba and Gerin, Antivir. Res. (1992) 19:55; Okuse, et al., Antivir. Res. (2005) 65:23). HCV RNA levels in the treated cultures are expressed as a percentage of the mean levels of RNA detected in untreated cultures. The absorbance of the internalized dye at […] (A510) was used for quantitative analysis.
(§4) Compounds were dissolved in 100% tissue culture grade DMSO (Sigma, Inc.) at 10 mM. Aliquots of test compounds sufficient for one daily treatment were made in individual tubes and all material was stored at −20° C. For the test, the compounds were suspended into culture medium at room temperature, and immediately added to the cell cultures. Compounds were analyzed separately in two groups with separate assay controls. […]
(§5) Values presented (±standard deviations [S.D.]) were calculated by linear regression analysis using data combined from all treated cultures. S.D. was calculated using the standard error of regression generated from the linear regression analyses (QuattroPro™). EC50 and EC90, drug concentrations at which a 2-fold, or a 10-fold depression of HCV RNA (relative to the average levels in untreated cultures), respectively, were observed; CC50, drug concentrations at which a 2-fold depression of neutral red dye uptake (relative to the average levels in untreated cultures) were observed.
In general terms: Replicon systems follow genome replication, usually without infectious particles.

The subject of data set [1] is HCV RNA-replicating cell line, AVA5 (genotype 1b, subgenomic replicon). The data set can be described thus: HCV replicon assay: intracellular HCV RNA levels by blot hybridization. Format: cell-based, HCV genotype 1b. The note with it: for EC50: 2-fold depression of HCV RNA relative to untreated cultures; for EC50 / EC90: normalized to β-actin RNA, daily treatment for three days, assessed at 72 hours; for EC90: 10-fold depression of HCV RNA relative to untreated cultures; for Antiviral activity (in words): results in Table 1. The procedure: as §1, §2, §3, §4, §5

A short description of data set [2]: Cytotoxicity by neutral red dye uptake assay in the HCV replicon cultures. The format is cell-based. The note with it: human; 2-fold depression of neutral red dye uptake relative to untreated cultures; daily treatment for three days, assessed at 72 hours. The procedure:
as §1, §2, §3, §4, §5

Each structure is given as a SMILES string.

The term CC50 denotes the concentration at which the toxic effect on the cells reaches its halfway point. Read a high CC50 as better tolerance by the cells. By EC50 is commonly meant the concentration that produces a half-maximal response. A low value points to an effect from little substance. By EC90 is commonly meant the concentration needed for an effect of 90%. The low end stands for an effect from little substance, the high end for a need for much substance. Turning to `C[C@@]1(O)[C@H](O)[C@@H](CO)O[C@H]1n1ccc(N)nc1=O` [Compound 12a, 2′-β-methylcytidine, reference compound], the CC50 in the data set with AVA5 cell line is above 100 µM. For the same compound, in data set [1], the EC50 is 1.6 µM and the concentration for an effect of 90% (EC90) is 5.9 µM.

As to `COC(=O)[C@H](C)NP(=O)(OC[C@H]1O[C@@H](n2ccc(N)nc2=O)[C@H](OC)[C@@H]1O)Oc1ccccc1` (stereo partly drawn) [Compound 13, 2′-O-Methylcytidine 5′-[O-phenyl-N-(S-2-methoxy-1-methyl-2-oxoethyl)]phosphoramidate], in the data set with AVA5 cell line, the CC50 was above 100 µM. In data set [1], this compound came in with an EC50 above 100 µM and an EC90 above 100 µM.

Compound `CCOC(=O)C(COC(C)=O)(COP(=O)(N[C@@H](C)C(=O)OC)OC[C@H]1O[C@@H](n2cnc(C(N)=O)n2)[C@H](O)[C@@H]1O)C(=O)OCC` (stereo partly drawn) [Compound 10] gave a CC50 in the data set with AVA5 cell line above 100 µM. Also, in data set [1], the EC50 was found to be 8.7 µM, the 90% effect level (EC90) was put at 54 µM and the “Antiviral activity (in words)” value is listed as “showed activity”.

In turn, `COC(=O)[C@H](C)NP(=O)(OC[C@H]1O[C@@H](n2cnc(C(N)=O)n2)[C@@H](O)C1O)Oc1ccccc1` (stereo partly drawn) [Compound 9] came in with a CC50 at 72 h in data set [2] above 100 µM. Moreover, in data set [1] (Hepatitis C virus, Ava5), the EC50 was above 100 µM and the EC90 is above 100 µM. In addition, the “Antiviral activity (in words)” value in data set [1] is “inactive”.

In turn, `CCOC(=O)C(COC(C)=O)(COP(=O)(OC[C@H]1O[C@@H](n2cnc(C(N)=O)n2)C(O)C1O)OCC(COC(C)=O)(C(=O)OCC)C(=O)OCC)C(=O)OCC` (stereo partly drawn) [Compound 11, Ribavirin 5′-bis[3-acetyloxy-2,2-bis(ethoxycarbonyl)propyl]phosphate] returned a half-maximal cytotoxic concentration (CC50) at 72 h in data set [2] of 9.7 ± 0.2 µM. In data set [1] (Hepatitis C virus, Ava5), this compound showed an EC50 of 1.6 ± 0.2 µM and an EC90 of 4.4 ± 0.4 µM. Also, the “Antiviral activity (in words)” value in data set [1] is recorded as “showed activity”.
